Experimental data published in US3956274A, “New compound 6'-deoxy-'-substituted or unsubstituted amino-lividomycins and the production thereof” (Zaidan Hojin Biseibutsu Kagaku Kenkyu Kai, priority 1973, dated 1976).
≈ marks a conversion by molar mass, not a printed value. Read-outs that look alike come from different tables or passages of the source.

Columns and labels:
[1] = system: Bacillus subtilis NRRL B-558; experiment: MIC, standard serial dilution method; type: cell-based; details: Bacillus subtilis, NRRLB558; B. subtilis NRRL B-558; nutrient agar, 37°C, 18 hours; read-out: Minimal inhibitory concentration
Experimental: (§1) The minimum inhibitory concentrations (mcg/ml) of 6'-amino-6'-deoxylividomycin B, 6'-deoxy-6'-methylaminolividomycin B and 6'-deoxy-6'-(2-hydroxyethylamino) lividomycin B against various microorganisms were determined according to a standard serial dilution method using nutrient agar incubation medium at 37°C, the estimation being effected after 18 hours incubation except for Mycobacterium smegmalis ATCC 607, in which the estimation being effected after 48 hours incubation. The minimum inhibitory concentrations (mcg/ml) of neomycin and lividomycin B were also determined in the same manner they also for comparison.

[2] = system: Escherichia coli K-12 J 5 R 11-2; experiment: MIC, standard serial dilution method; type: cell-based; details: Escherichia coli, K12J5R112; E. coli K-12 J 5 R 11-2; nutrient agar, 37°C, 18 hours; read-out: Minimal inhibitory concentration
Experimental: as §1

[3] = system: Escherichia coli K-12 LA 290 R 56; experiment: MIC, standard serial dilution method; type: cell-based; details: Escherichia coli, 18 h, read-out: Minimal inhibitory concentration
Experimental: as §1

[4] = system: Escherichia coli K-12 LA 290 R 64; experiment: MIC, standard serial dilution method; type: cell-based; details: Escherichia coli; E. coli K-12 LA 290 R 64; nutrient agar, 37°C, 18 hours; read-out: Minimal inhibitory concentration
Experimental: as §1

[5] = system: Escherichia coli K-12 ML 1410 R 81; experiment: MIC, standard serial dilution method; type: cell-based; details: Escherichia coli, 18 h, read-out: Minimal inhibitory concentration
Experimental: as §1

[6] = system: Escherichia coli K-12 ML 1410; experiment: MIC, standard serial dilution method; type: cell-based; details: Escherichia coli, read-out: Minimal inhibitory concentration
Experimental: as §1

[7] = system: Escherichia coli K-12 ML 1630; experiment: MIC, standard serial dilution method; type: cell-based; details: Escherichia coli, K12ML1630; E. coli K-12 ML 1630; nutrient agar, 37°C, 18 hours; read-out: Minimal inhibitory concentration
Experimental: as §1

[8] = system: Escherichia coli K-12 R-5; experiment: MIC, standard serial dilution method; type: cell-based; details: Escherichia coli, K12R5; E. coli K-12 R-5; nutrient agar, 37°C, 18 hours; read-out: Minimal inhibitory concentration
Experimental: as §1

[9] = system: Escherichia coli K-12 W 677; experiment: MIC, standard serial dilution method; type: cell-based; details: Escherichia coli, read-out: Minimal inhibitory concentration
Experimental: as §1

[10] = system: Escherichia coli K-12; experiment: MIC, standard serial dilution method; type: cell-based; details: Escherichia coli, read-out: Minimal inhibitory concentration
Experimental: as §1

[11] = system: Escherichia coli NIHJ; experiment: MIC, standard serial dilution method; type: cell-based; details: Escherichia coli, read-out: Minimal inhibitory concentration
Experimental: as §1

[12] = system: Klebsiella pneumoniae PCI 602; experiment: MIC, standard serial dilution method; type: cell-based; details: Klebsiella pneumoniae, PCI602; K. pneumoniae PCI 602; nutrient agar, 37°C, 18 hours; read-out: Minimal inhibitory concentration
Experimental: as §1

[13] = system: Klebsiella pneumoniae type 22 No. 3038; experiment: MIC, standard serial dilution method; type: cell-based; details: Klebsiella pneumoniae, read-out: Minimal inhibitory concentration
Experimental: as §1

[14] = system: Mycobacterium smegmatis ATCC 607; experiment: MIC, standard serial dilution method; type: cell-based; details: Mycolicibacterium smegmatis, ATCC607, nutrient agar, 37°C, 48 hours, read-out: Minimal inhibitory concentration
Experimental: as §1

[15] = system: Proteus rettgeri GN 311; experiment: MIC, standard serial dilution method; type: cell-based; details: Providencia rettgeri, GN311, nutrient agar, 37°C, 18 hours, read-out: Minimal inhibitory concentration
Experimental: as §1

[16] = system: Proteus rettgeri GN 466; experiment: MIC, standard serial dilution method; type: cell-based; details: Providencia rettgeri, read-out: Minimal inhibitory concentration
Experimental: as §1

[17] = system: Pseudomonas aeruginosa 99; experiment: MIC, standard serial dilution method; type: cell-based; details: read-out: Minimal inhibitory concentration
Experimental: as §1

[18] = system: Pseudomonas aeruginosa A 3; experiment: MIC, standard serial dilution method; type: cell-based; details: Pseudomonas aeruginosa, A3, 18 h, read-out: Minimal inhibitory concentration
Experimental: as §1

[19] = system: Pseudomonas aeruginosa No.12; experiment: MIC, standard serial dilution method; type: cell-based; details: Pseudomonas aeruginosa; P. aeruginosa No.12; nutrient agar, 37°C, 18 hours; read-out: Minimal inhibitory concentration
Experimental: as §1

[20] = system: Pseudomonas aeruginosa TI-13-1; experiment: MIC, standard serial dilution method; type: cell-based; details: Pseudomonas aeruginosa, TI131; P. aeruginosa TI-13-1; nutrient agar, 37°C, 18 hours; read-out: Minimal inhibitory concentration
Experimental: as §1

[21] = system: Salmonella typhosa T-63; experiment: MIC, standard serial dilution method; type: cell-based; details: Salmonella enterica, TYPHOSA, 18 h, read-out: Minimal inhibitory concentration
Experimental: as §1

[22] = system: Sarcina lutea PCI 1001; experiment: MIC, standard serial dilution method; type: cell-based; details: Micrococcus luteus, PCI1001, nutrient agar, 37°C, 18 hours, read-out: Minimal inhibitory concentration
Experimental: as §1

[23] = system: Staphylococcus aureus FDA 209 P; experiment: MIC, standard serial dilution method; type: cell-based; details: Staphylococcus aureus, FDA209; S. aureus FDA 209 P; nutrient agar, 37°C, 18 hours; read-out: Minimal inhibitory concentration
Experimental: as §1

[24] = system: Escherichia coli K-12 JR 66/W 677; experiment: MIC, standard serial dilution method; type: cell-based; details: Escherichia coli, 18 h, read-out: Minimal inhibitory concentration
Experimental: as §1
(§2) In the above table, the mark * denotes the strain is a drug-resistant
(§3) strain of patient-origin.

[25] = system: Escherichia coli K-12 LA 290 R 55; experiment: MIC, standard serial dilution method; type: cell-based; details: Escherichia coli, 18 h, read-out: Minimal inhibitory concentration
Experimental: as §1, §2, §3

[26] = system: Escherichia coli K-12 ML 1629; experiment: MIC, standard serial dilution method; type: cell-based; details: Escherichia coli, K12ML1629; E. coli K-12 ML 1629, drug-resistant strain of patient-origin; nutrient agar, 37°C, 18 hours; read-out: Minimal inhibitory concentration
Experimental: as §1, §2, §3

[27] = system: Pseudomonas aeruginosa GN 315; experiment: MIC, standard serial dilution method; type: cell-based; details: Pseudomonas aeruginosa, read-out: Minimal inhibitory concentration
Experimental: as §1, §2, §3

[28] = system: kanamycin-resistant strains; details: in words; cited from earlier work
[29] = K12W677, E. coli K-12 W 677, nutrient agar, 37°C, 18 hours
[30] = K12, E. coli K-12, nutrient agar, 37°C, 18 hours
[31] = GN466, Proteus rettgeri GN 466, nutrient agar, 37°C, 18 hours
[32] = Pseudomonas aeruginosa, P. aeruginosa 99, nutrient agar, 37°C, 18 hours
[33] = E. coli NIHJ, nutrient agar, 37°C, 18 hours
[34] = GN315, P. aeruginosa GN 315, drug-resistant strain of patient-origin, nutrient agar, 37°C, 18 hours

CNC[C@H]1O[C@H](O[C@H]2[C@H](O[C@@H]3O[C@H](CO)[C@@H](O[C@H]4O[C@@H](CN)[C@@H](O)[C@H](O)[C@H]4N)[C@H]3O)[C@@H](O)[C@H](N)C[C@@H]2N)[C@H](N)C[C@@H]1O [MALVB, 6'-deoxy-6'-methylaminolividomycin B]
MIC [1]: < 0.2 µg/mL | MIC [2]: 100 µg/mL (≈ 163 µM) | MIC [3]: 1.56 µg/mL (≈ 2.55 µM) | MIC [4]: 0.78 µg/mL (≈ 1.27 µM) | MIC [5]: > 100 µg/mL | MIC ([6]; K12ML1410, 18 h): 3.12 µg/mL (≈ 5.09 µM) | MIC [7]: > 100 µg/mL | MIC [8]: 1.56 µg/mL (≈ 2.55 µM) | MIC [9, 29]: 0.78 µg/mL (≈ 1.27 µM) | MIC [10, 30]: 0.78 µg/mL (≈ 1.27 µM) | MIC ([11]; 18 h): 3.12 µg/mL (≈ 5.09 µM) | MIC [12]: 0.78 µg/mL (≈ 1.27 µM) | MIC ([13]; TYPE22NO.3038, 18 h): 1.56 µg/mL (≈ 2.55 µM) | MIC [14]: < 0.2 µg/mL | MIC [15]: 25 µg/mL (≈ 40.8 µM) | MIC [16, 31]: 12.5 µg/mL (≈ 20.4 µM) | MIC [17, 32]: 25 µg/mL (≈ 40.8 µM) | MIC [18]: 3.12 µg/mL (≈ 5.09 µM) | MIC [19]: 0.78 µg/mL (≈ 1.27 µM) | MIC [20]: > 100 µg/mL | MIC [21]: 0.78 µg/mL (≈ 1.27 µM) | MIC [22]: 6.25 µg/mL (≈ 10.2 µM) | MIC [23]: < 0.2 µg/mL | MIC [24]: 3.12 µg/mL (≈ 5.09 µM) | MIC [25]: 1.56 µg/mL (≈ 2.55 µM) | MIC [26]: > 100 µg/mL | MIC ([27]; GN315, 18 h): 3.12 µg/mL (≈ 5.09 µM)

NC[C@@H]1O[C@H](O[C@H]2[C@@H](O)[C@H](O[C@@H]3[C@@H](O)[C@H](N)C[C@H](N)[C@H]3O[C@H]3O[C@H](CN)[C@@H](O)C[C@H]3N)O[C@@H]2CO)[C@H](N)[C@@H](O)[C@@H]1O [ALVB, 6'-amino-6'-deoxylividomycin B]
MIC [1]: < 0.2 µg/mL | MIC [2]: 25 µg/mL (≈ 41.8 µM) | MIC [3]: 0.39 µg/mL (≈ 0.651 µM) | MIC [5]: 100 µg/mL (≈ 167 µM) | MIC ([6]; K12ML1410, 18 h): 1.56 µg/mL (≈ 2.61 µM) | MIC [7]: 50 µg/mL (≈ 83.5 µM) | MIC [8]: 0.39 µg/mL (≈ 0.651 µM) | MIC [9, 29]: 0.78 µg/mL (≈ 1.3 µM) | MIC [10, 30]: 0.78 µg/mL (≈ 1.3 µM) | MIC [11, 33]: 0.78 µg/mL (≈ 1.3 µM) | MIC [12]: 0.78 µg/mL (≈ 1.3 µM) | MIC ([13]; TYPE22NO.3038, 18 h): 1.56 µg/mL (≈ 2.61 µM) | MIC [14]: < 0.2 µg/mL | MIC [15]: 25 µg/mL (≈ 41.8 µM) | MIC [16, 31]: 3.12 µg/mL (≈ 5.21 µM) | MIC ([17]; Pseudomonas aeruginosa, 99, 18 h): 1.56 µg/mL (≈ 2.61 µM) | MIC [18]: 1.56 µg/mL (≈ 2.61 µM) | MIC [19]: 0.78 µg/mL (≈ 1.3 µM) | MIC [20]: 100 µg/mL (≈ 167 µM) | MIC [21]: 0.39 µg/mL (≈ 0.651 µM) | MIC [22]: 0.78 µg/mL (≈ 1.3 µM) | MIC [23]: < 0.2 µg/mL | MIC [24]: 1.56 µg/mL (≈ 2.61 µM) | MIC [25]: 1.56 µg/mL (≈ 2.61 µM) | MIC [26]: 50 µg/mL (≈ 83.5 µM) | MIC [27, 34]: 25 µg/mL (≈ 41.8 µM)

NCC1OC(OC2C(N)CC(N)C(OC3OC(CO)C(O)C(N)C3O)C2O)C(O)CC1O (centres unmarked) [3'-Deoxykananmycin, 3'-deoxykanamycin]
activity against kanamycin-resistant strains [28]: actually effective

NC[C@@H]1O[C@H](O[C@H]2[C@@H](O)[C@H](O[C@@H]3[C@@H](O)[C@H](N)C[C@H](N)[C@H]3O[C@H]3O[C@H](CNCCO)[C@@H](O)C[C@H]3N)O[C@@H]2CO)[C@H](N)[C@@H](O)[C@@H]1O [HALVB, 6'-deoxy-6'-(2-hydroxyethylamino) lividomycin B]
MIC [1]: < 0.2 µg/mL | MIC [2]: > 100 µg/mL | MIC [3]: 0.78 µg/mL (≈ 1.21 µM) | MIC [4]: 1.56 µg/mL (≈ 2.43 µM) | MIC [5]: > 100 µg/mL | MIC ([6]; K12ML1410, E. coli K-12 ML 1410, nutrient agar, 37°C, 18 hours): 3.12 µg/mL (≈ 4.85 µM) | MIC [7]: > 100 µg/mL | MIC [8]: 1.56 µg/mL (≈ 2.43 µM) | MIC ([9]; K12W677, 18 h): 1.56 µg/mL (≈ 2.43 µM) | MIC ([10]; K12, 18 h): 1.56 µg/mL (≈ 2.43 µM) | MIC [11, 33]: 3.12 µg/mL (≈ 4.85 µM) | MIC [12]: 0.78 µg/mL (≈ 1.21 µM) | MIC ([13]; TYPE22NO.3038, K. pneumoniae type 22 No. 3038, nutrient agar, 37°C, 18 hours): 3.12 µg/mL (≈ 4.85 µM) | MIC [14]: < 0.2 µg/mL | MIC [15]: 50 µg/mL (≈ 77.8 µM) | MIC ([16]; GN466, 18 h): 6.25 µg/mL (≈ 9.72 µM) | MIC [17, 32]: 25 µg/mL (≈ 38.9 µM) | MIC [18]: 6.25 µg/mL (≈ 9.72 µM) | MIC [19]: 0.78 µg/mL (≈ 1.21 µM) | MIC [20]: > 100 µg/mL | MIC [21]: 1.56 µg/mL (≈ 2.43 µM) | MIC [22]: 25 µg/mL (≈ 38.9 µM) | MIC [23]: 0.39 µg/mL (≈ 0.607 µM) | MIC [24]: 6.25 µg/mL (≈ 9.72 µM) | MIC [25]: 1.56 µg/mL (≈ 2.43 µM) | MIC [26]: > 100 µg/mL | MIC [27, 34]: 12.5 µg/mL (≈ 19.4 µM)

NCC1CCC(N)C(OC2C(N)CC(N)C(OC3OC(CO)C(O)C(N)C3O)C2O)O1 (centres unmarked) [3', 4'-dideoxykanamycin B]
activity against kanamycin-resistant strains [28]: actually effective

NC[C@@H]1CC[C@@H](N)[C@@H](O[C@H]2[C@H](O)[C@@H](O)[C@H](N)C[C@@H]2N)O1 [3', 4'-dideoxyneamine]
activity against kanamycin-resistant strains [28]: actually effective
